PubChem BioAssay AID504322 (Emory University Molecular Libraries Screening Center, 2011)
Active and inactive are the calls of the source. The rule behind the calls is not given here.

Test system: CHOP reporter cell assay, percent of control
Assay: CHOP reporter inhibitor potency, dose response, cell-based (AID 504322);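 note: CHO cells carrying a CHOP reporter stimulated with tunicamycin to induce ER stress; potency is for inhibition of the stress-induced reporter signal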

## Cc1cc(C(=O)N/N=C/c2ccc(-c3cccc(Cl)c3Cl)o2)n[nH]1
  IC50: 5.27 µM (inactive)

## O=C1C=CC(=O)N1CCCCCCN1C(=O)C=CC1=O
  IC50: 4.94 µM

## NC(=O)c1ccc(C(F)(F)F)n(Cc2ccc(Cl)cc2)c1=O
  IC50: 9.05 µM (inactive)

## CCOC(=O)C1=C(c2ccc(OC)cc2)C(=O)c2ccccc2C1=O
  IC50: 8.81 µM (inactive)

## O=C1NCN(c2ccccc2)C12CCN(CCCC(c1ccc(F)cc1)c1ccc(F)cc1)CC2
  IC50: 7.76 µM (inactive)

## O=C(NCc1nc(-c2ccc(C(F)(F)F)cc2)no1)Nc1cc(Cl)cc(Cl)c1
  IC50: 4.78 µM

## COC(=O)c1ccc2c(c1)C(C)(C)C(/C=C/c1ccccc1O)=[N+]2C
  IC50: > 10 µM (inactive)

## Cc1cccc(C)c1NC(=O)COc1ccccc1C(=O)Nc1ccc(Br)cn1
  IC50: > 10 µM (inactive)

## CC(=O)OC[C@]12CCC(C)=C[C@H]1O[C@@H]1[C@H](O)[C@@H](OC(C)=O)[C@@]2(C)[C@]12CO2
  IC50: < 0.16 µM (inactive)

## CN(C)c1ccc(C(CNS(=O)(=O)c2ccc(F)c(F)c2)c2c[nH]c3ccccc23)cc1 (centres undefined)
  IC50: 6.39 µM (inactive)

## CCCOc1ccc(Cc2c(Cl)nc(SC)nc2NC)cc1
  IC50: 8.18 µM (inactive)

## COc1cc([C@@H]2c3cc4c(cc3[C@@H](O)[C@@H](CO)[C@@H]2CO)OCO4)cc(OC)c1O[Si](C)(C)C(C)(C)C
  IC50: 6.02 µM (inactive)

## O=S1(=O)C=C(Sc2nc3cc(Cl)ccc3o2)c2ccccc21
  IC50: 2.91 µM

## CCN(CC)CCn1c(SCC(=O)Nc2ccc(F)cc2)nc2c(sc3ccccc32)c1=O
  IC50: > 10 µM (inactive)

## CC(C)(C)C(=O)c1no[n+]([O-])c1/C(=N/O)C(C)(C)C
  IC50: 7.23 µM (inactive)

## Cc1ccc(N=C2SC(C(=O)Nc3ccc(OC(F)(F)F)cc3)C(N)=C2C(=O)Nc2c(C)cc(C)cc2C)cc1 (centres undefined)
  IC50: > 10 µM (inactive)

## CC(C)C[C@H](NC(=O)c1[nH]cnc1C(=O)Nc1ccccc1)C(=O)OC(C)(C)C
  IC50: 5.95 µM (inactive)

## Cc1cc(/C=N/n2cnnc2)c(C)n1-c1ccc(OCc2ccccc2F)cc1
  IC50: 4.88 µM

## CS(=O)(=O)c1ncc(Cl)c(C(=O)Nc2ccc(N3CCOCC3)cc2)n1
  IC50: > 10 µM (inactive)

## Nc1c(N(C(=O)Nc2ccc(Cl)c(Cl)c2)C2CCCC2)c(=O)[nH]c(=O)n1Cc1ccccc1
  IC50: > 10 µM (inactive)

## O=C(CN1C(=O)c2ccccc2S1(=O)=O)c1ccc2c(c1)OCCCO2
  IC50: 0.34 µM (inactive)

## COc1cc(OC)nc(-n2ncc(Br)c(Br)c2=O)n1
  IC50: 1.93 µM

## O=C(O)c1cccc(COc2ccc(CO)cc2Cl)c1
  IC50: < 0.16 µM

## CN1CC(c2ccccc2)C2(SC(=S)N(Cc3ccco3)C2=O)C12C(=O)Nc1ccccc12 (centres undefined)
  IC50: > 10 µM (inactive)

## C=CCSc1n[nH]c(-c2ccc(OCCCC)cc2)n1
  IC50: > 10 µM (inactive)

## Cc1nn(C(C)(C)C)c(C)c1/C=N/OC(=O)Nc1ccc(Cl)cc1
  IC50: < 0.16 µM

## N#CC1=C(N)N2C(=C(C#N)C1c1cccc(Br)c1)Nc1ccccc12 (centres undefined)
  IC50: 5.07 µM (inactive)

## COC(=O)c1ccc2c(c1)C(C)(C)C(/C=C/c1ccc(O)cc1)=[N+]2C
  IC50: > 10 µM (inactive)

## COc1ccc(C(=O)/C=C/C(=O)N(CC(=O)NC2CCCCC2)Cc2ccc(F)cc2)c(O)c1
  IC50: 2.12 µM

## CCCCS(=O)(=O)/C=C\C=C/S(=O)(=O)CCCC
  IC50: 2.12 µM

## CC(C)(C)c1cc(-c2csc(Nc3ccccc3)[n+]2Cc2ccc(C(=O)O)cc2)cc(C(C)(C)C)c1O
  IC50: 9.46 µM (inactive)

## Cc1cc(C(=O)COC(=O)c2ccccc2O)c(C)n1Cc1cccs1
  IC50: < 0.16 µM (inactive)

## Cc1nn(Cc2c(Cl)cccc2Cl)c(C)c1NC(=O)c1cn(-c2ccccc2)nc1-c1ccccc1
  IC50: 4.8 µM

## S=C(NCCc1ccc(Cl)cc1)Nc1ccc(Cl)cc1Cl
  IC50: 9.93 µM (inactive)

## O=S(=O)(NCC(Nc1ccc(Cl)cc1)c1ccccc1)c1ccc(Cl)cc1 (centres undefined)
  IC50: 6.69 µM (inactive)

## Fc1cccc(-c2nnn3c2nc(Cl)c2ccccc23)c1
  IC50: 7.37 µM (inactive)

## CCCCCCNC(=O)CC(c1ccccc1)c1cc(Br)ccc1O (centres undefined)
  IC50: 3.52 µM

## COc1cc(OC)c(OC)cc1/C=N/Nc1ncnc2c1[nH]c1ccccc12
  IC50: 9.19 µM (inactive)

## Cc1cccc(NC(=O)CSc2nc(C)c(CC(=O)c3ccc(Br)cc3)c(C)c2C#N)c1C
  IC50: 5.95 µM (inactive)

## CCCCCCCCCS(=O)(=O)N/N=C/c1cccc([N+](=O)[O-])c1
  IC50: 3.9 µM (inactive)

## CN1C2CCC1/C(=C/c1ccccn1)C(=O)/C2=C\c1ccccn1
  IC50: 2.04 µM

## Cc1cc(O)c(NC(=S)NC(=O)c2ccc(-c3ccc(Cl)cc3)o2)cc1C
  IC50: < 0.16 µM

## Cc1ccccc1OCc1n(CC(=O)OC2CC(C)CCC2C(C)C)c2ccccc2[n+]1C (centres undefined)
  IC50: > 10 µM (inactive)

## O=C(N/N=C/c1ccccn1)c1cc(-c2ccc3ccccc3c2)n[nH]1
  IC50: > 10 µM (inactive)

## CCCCCCn1c(=O)c(C(=O)N/N=C/c2cccc(F)c2)c(O)c2ccccc21
  IC50: 7.03 µM (inactive)

## CCN1/C(=C/c2ccc3cc(C)ccc3[n+]2C)Sc2ccc3sccc3c21
  IC50: 5.29 µM (inactive)

## CC(C)C[C@H](NC(=O)c1[nH]cnc1C(=O)N[C@@H](C)C(=O)OC(C)(C)C)C(=O)OC(C)(C)C
  IC50: 3.69 µM (inactive)

## COc1ccc(C(=O)NC(=O)Nc2cc(C)ccn2)cc1
  IC50: 9.99 µM (inactive)

## CCOC(=O)C1=C(O)/C(=C/c2ccc(CNC(=O)C(=O)Nc3ccc(C)cc3)o2)N=C1C
  IC50: > 10 µM (inactive)

## CCCCCn1c(=O)c(C(=O)Nc2nc3ccccc3[nH]2)c(O)c2ccccc21
  IC50: 4.96 µM

## O=C1/C(=C/c2ccncc2)SC(=S)N1C1CCS(=O)(=O)C1 (centres undefined)
  IC50: 9.91 µM (inactive)

## N#CC(C#N)=C1C=CC=CN1/C(=C\c1ccccc1Cl)C(=O)c1ccccc1
  IC50: > 10 µM (inactive)

## Cc1ccc(N2C(=O)NC(=O)/C(=C\C=C\c3ccco3)C2=O)cc1
  IC50: 9.55 µM (inactive)

## CC1CCN(S(=O)(=O)c2ccc3c(c2)C(=NO)c2cc(S(=O)(=O)N4CCC(C)CC4)ccc2-3)CC1
  IC50: 0.32 µM

## CCc1ccc(/C=c2\s/c(=C\C(=O)C(C)(C)C)[nH]c2=O)cc1
  IC50: 9.29 µM (inactive)

## Cc1cc(C)cc(NC(=O)/C(C#N)=C/c2cn(CC(=O)NCc3ccco3)c3ccccc23)c1
  IC50: 1.17 µM

## COc1ccc(Cn2c(SCc3ccccc3C)nc3cc(OC)c(OC)cc3c2=N)cc1
  IC50: 8.86 µM (inactive)

## COc1cc(/C=C2\COC/C(=C\c3cc(OC)c(OC)c(OC)c3)C2=O)cc(OC)c1OC
  IC50: 3.46 µM

## O=C(Nc1ccc(OC(F)F)cc1)Nc1cccc(C(F)(F)F)c1
  IC50: 8.9 µM (inactive)

## CCc1ccc(OCC(=O)NC(NC(=S)Nc2ccc(C)cc2C)C(Cl)(Cl)Cl)cc1 (centres undefined)
  IC50: 8.46 µM (inactive)

## CCOc1cc(/C=C2/C(=O)ON=C2C)ccc1OCc1ccc(F)cc1
  IC50: 9.5 µM (inactive)

## Cc1ccc(-c2nc(N)sc2-c2ccc(C)cc2)cc1
  IC50: 9.83 µM (inactive)

## CC(/C=N/n1c(C2CCCCC2)n[nH]c1=S)=C\c1ccccc1
  IC50: 5.88 µM (inactive)

## CCOC(=O)COc1ccccc1/C=C\[N+](=O)[O-]
  IC50: 9.51 µM (inactive)

## CCc1ccc(-c2nc(CSCC(=O)NCc3ccco3)c(C)o2)cc1
  IC50: < 0.16 µM

## O=[N+]([O-])c1ccc(COc2ccc(-c3[nH]ncc3-c3ccccc3)c(O)c2)cc1
  IC50: 9.61 µM (inactive)

## Cc1cccc(NC(=S)NC(NC(=O)OCc2ccccc2)C(Cl)(Cl)Cl)c1 (centres undefined)
  IC50: 9.44 µM (inactive)

## Cn1cnc([N+](=O)[O-])c1S(=O)(=O)c1ccc(Cl)cc1
  IC50: 7.04 µM (inactive)

## CC(C)Cc1ccc(C(C)C(=O)Nc2nccs2)cc1 (centres undefined)
  IC50: > 10 µM (inactive)

## CC(C)C[C@H](NC(=O)c1nc[nH]c1C(=O)NCC(=O)OC(C)(C)C)C(=O)OCc1ccccc1
  IC50: > 10 µM (inactive)

## COc1ccc(-c2nc(NC(=O)Cn3ccc(C(F)(F)F)n3)sc2C)cc1
  IC50: > 10 µM (inactive)

## O=C1C(N2CCOCC2)=C(n2nnc3ccccc32)C(=O)c2ccccc21
  IC50: 9.64 µM (inactive)

## COc1cc(-c2nc3c(c(C)nn3-c3ccccc3)c3cc(OC)c(OC)cc23)ccc1O
  IC50: 9.85 µM (inactive)

## Oc1ccc(Oc2ccc3c(C(F)(F)F)cc(C(F)(F)F)nc3n2)cc1
  IC50: 9.36 µM (inactive)

## CC1(c2ccccc2)CC(C)(C)N2C(=O)C3(C(C#N)=C(N)Oc4cc(O)ccc43)c3cccc1c32 (centres undefined)
  IC50: 5.48 µM (inactive)

## COc1cccc(C(=O)C(C#N)=C(SC)SC)c1
  IC50: > 10 µM (inactive)

## CCOc1ccc(N=Cc2c(O)n(C(C)(C)C)c(=O)[nH]c2=O)cc1
  IC50: 9.2 µM (inactive)

## CC(C)(C)c1ccc(C(=O)Nc2ccc(CC(=O)O)cc2)o1
  IC50: < 0.16 µM

## O=C1C=CC(=O)N1N(c1ccccc1)c1ccccc1
  IC50: > 10 µM (inactive)

## C[C@H](NC(=O)c1[nH]cnc1C(=O)Nc1ccc(CNC(=O)OC(C)(C)C)cc1)C(=O)OC(C)(C)C
  IC50: > 10 µM (inactive)

## CC(C)(C)c1cc(CN2CCCC(O)C2)c(O)c(C(C)(C)C)c1 (centres undefined)
  IC50: 5.02 µM

## CN1CCN(c2ccc(-c3ccc4ccccc4n3)cc2)CC1
  IC50: < 0.16 µM (inactive)

## Cc1ccc(C(=O)N/C(=C\c2ccc(Br)cc2)c2nc(=S)[nH][nH]2)cc1
  IC50: 9.7 µM (inactive)

## Cc1cccc(C(=O)c2cnc3ccccc3c2-c2ccccc2)c1
  IC50: > 10 µM (inactive)

## Cc1cc(/C=N/Nc2nc(N)ncc2[N+](=O)[O-])c(C)n1-c1cccc(C(F)(F)F)c1
  IC50: 9.14 µM (inactive)

## Cc1sc2ncnc(N3CCCCC3C)c2c1C (centres undefined)
  IC50: > 10 µM (inactive)

## CNc1nc(Sc2cccc(C(F)(F)F)c2)cc(C(F)(F)F)n1
  IC50: > 10 µM (inactive)

## Cc1sc(NC(=O)c2cccc([N+](=O)[O-])c2)c(C(N)=O)c1-c1ccc(C(C)(C)C)cc1
  IC50: > 10 µM (inactive)

## Cc1cc(C)c(S(=O)(=O)c2ccccc2)c(OC(=O)c2cc(F)c(F)cc2Cl)n1
  IC50: 8.2 µM (inactive)

## CC(C)(C)C(=O)NC(=S)NNC(=O)C(c1ccccc1)c1ccccc1
  IC50: 9.04 µM (inactive)

## COc1ccc([C@H]2Oc3cc(O)cc(O)c3C(=O)C2[C@@H]2C(=O)c3c(O)cc(O)cc3O[C@@H]2c2ccc(OC)cc2)cc1 (some centres undefined)
  IC50: > 10 µM (inactive)

## O=C(Nc1ccccc1Cl)/C(Cl)=C(\Cl)S(=O)c1ccccc1 (centres undefined)
  IC50: 2.4 µM

## CC(C)(C)c1nnc(N/N=C/c2cc(Br)ccc2O)n(N)c1=O
  IC50: 5.11 µM (inactive)

## CCC(C)(C)NC(=O)C(c1cccn1C)N(C(=O)Cn1nnc2ccccc21)c1ccc(F)cc1 (centres undefined)
  IC50: > 10 µM (inactive)
